We go through two compounds from doi:10.64898/2025.12.05.692609v2, “Early intervention with a PACAP lactoside following repetitive mild traumatic brain injury prevents persistent LHb hyperactivity and motivational deficits in male mice” (bioRxiv, 2025).

Read-outs that look alike come from different tables or passages of the source. Where a SMILES comes first, the peptide text is derived from it. [ ]: non-standard residue; d: D form. The star is where a group is joined. X1 = OC[C@H]1O[C@@H](O[C@H]2[C@H](O)[C@@H](O)[C@H](*)O[C@@H]2CO)[C@H](O)[C@@H](O)[C@H]1O; Nle = CCCC[C@H](N)C(=O)O

A short description of data set [1]: Time-locked brain microdialysis and blood sampling pharmacokinetics. The following applies: for Brain Dialysate: AUC / Brain Dialysate: Cmax / Brain Dialysate: Tmax: 3 mg/kg IP, striatal microdialysis 0-60 min; for Brain Dialysate: AUC: TES2300 and TES2320 co-injected, estimated concentration by probe recovery; for Brain Dialysate: AUC / Brain Dialysate: Cmax: LC-MS/MS, mean ± SEM; for Brain Dialysate: Cmax: estimated by probe recovery.
Excerpt: Mice (PN56-70) were anesthetized with isoflurane (1%) mixed with medical grade oxygen (0.75 L/min). Two incisions were made: a 0.5 cm incision in between the scapulae and a 1-cm ventral neck incision right of midline. The right carotid artery was isolated, ligated cranially with 4-0 silk, and temporarily occluded at the caudal end of the vessel with a micro clamp. A small incision was made into the carotid artery and PE-10 tubing, preflushed with heparin/glycerol (500 IU/ml, 50:50) and connected to a 28-gauge PinPort^TM (PNP3F28; Instech, Plymouth Meeting, PA), was advanced toward the heart. The clamp was released, the caudal ligature secured the catheter, and the catheter was tunneled subcutaneously to the scapular incision. Both incisions were closed with staples. The mouse was immediately transferred to a stereotaxic frame to implant the microdialysis probe.
A midsagittal skull incision was followed by a craniotomy (AP +0.5 mm, ML +2.0 mm from bregma). The dura was removed and a microdialysis probe (CMA12, 8309664, 4 mm membrane, 100 kDa cutoff; HBio, Holliston, MA) was inserted into the striatum (DV −5.0 mm).
Microdialysis probes were primed with artificial cerebrospinal fluid aCSF (15 mM Tris HCl, 10 mM Tris base, 126 mM NaCl, 2.5 KCl, 1.2 mM NaH2PO4, 2mM Na2SO4, and adjusted pH to 7.4) containing 0.05% bovine serum albumin (BSA) at a rate of 1 μL/minute using a two channel dual syringe pump (Fusion 101A Syringe Pump; Chemyx, Stafford, TX) for one-hour and then placed into the striatum at the coordinates listed above for 30-minutes prior to collecting baseline dialysate. Using the other pump channel, the preservation solution containing 150 ng/mL DADLE ([D-Ala2, D-Leu5]-Enkephalin; 10% acetic acid in 0.05% BSA in aCSF as an internal standard) is combined with the dialysate immediately via a micro-Tee at a flow rate of 1 μL/min (Figure 2A.). […] Dialysate was collected at −10, +10, +20, +30, +40, +50, and +60 minutes. Blood was collected at −5, +1, +5, +15, +25, +35, +45, and +55 minutes to correspond to the midpoint of the dialysate fraction. To separate plasma from whole blood, each sample was collected in ethylenediamine tetraacetic acid capillary tubes (CT-CB300-K2EDTA; Sarstedt, Nümbrecht, Germany), inverted repeatedly for 30 seconds, and centrifuged for 5 minutes at 2,500 x g in a refrigerated centrifuge (Galaxy Mini Centrifuge; VWR, Radnor, PA).
Biological sample preparation: Plasma samples (20 µL) were mixed with 20 µL of an internal standard working solution containing 150 ng/mL (DADLE) in 10% acetic acid. To precipitate proteins in both plasma and dialysate, 120 µL of ice-cold methanol was added to the plasma mixture and the dialysate samples (20 µL, premixed with preservation solution). After vortexing for 30 seconds, samples were centrifuged at 8,000 x g for 10-minutes at 4°C. The supernatant was evaporated using a Savant Speedvac concentrator. Dialysate and plasma samples were reconstituted in 20 μL of diluent (5% methanol and 0.1% formic acid in nanopure water).
Liquid chromatography and mass spectrometry: Samples were injected into the Thermo Fisher Scientific UHPLC-MS/MS TSQ system. Separation was achieved on an ACQUITY UPLC HSS T3 C18 Column (100 Å, 1.8 µm, 2.1 × 100 mm) and VanGuard pre-column (HSS T3 1.8 μm, 2.1 × 5 mm) and a HyperSep Retain PEP trap column (2.1 × 10 mm) with the column temperature set at 40 °C. We used a water-acetonitrile gradient with a flow rate of 0.2 mL/min and a total run time of 25. The mobile phases used were A: 0.1% v/v formic acid in deionized water and B: 0.1% v/v formic acid in acetonitrile, with the following conditions: 0 to 1 min (2 %B diverted to waste), 1.0 to 1.2 min (5% B), 1.2 min to 6 min (15% B), 6 min to 11 min (30% B), 11 min to 12.5 min (95% B), 12.5 min to 18 min (95% B), 18 min to 18.5 min (5 %B) 18.5 min to 23.5 min (5% B), 23.5 min to 25 min (2 %B). Injection volumes of 10 µL for dialysate and 5 µL for the plasma sample were used.

For a further data set, the system named is VPAC1 receptors. The following applies: cited from earlier work.
The nature of data set [2]: PWR membrane partitioning into receptor-free egg phosphatidylcholine membranes. The data set is classed as physicochemical.
The test system of data set [3] is male C57BL/6 mice, repetitive closed-head mTBI.
Another data set in a line: in vivo. The conditions noted are these: C57Bl/6J, mouse, ip, 3 mg/kg.
The test system of the next data set is LHb neurons. Nature of the data set: LHb neuronal excitability, intrinsic properties, rebound bursting, Ih and M-currents in slices after in vivo treatment. On the set-up: species or system male C57BL/6 mice. The following applies: for effect on mTBI-induced LHb hyperexcitability (APs on depolarization): vs mTBI+vehicle P<0.0001, 2-way ANOVA.
In another data set the target is T1, human PAC1 receptor (Homo sapiens, UniProt P41586).
T1 sequence (P41586 21-468): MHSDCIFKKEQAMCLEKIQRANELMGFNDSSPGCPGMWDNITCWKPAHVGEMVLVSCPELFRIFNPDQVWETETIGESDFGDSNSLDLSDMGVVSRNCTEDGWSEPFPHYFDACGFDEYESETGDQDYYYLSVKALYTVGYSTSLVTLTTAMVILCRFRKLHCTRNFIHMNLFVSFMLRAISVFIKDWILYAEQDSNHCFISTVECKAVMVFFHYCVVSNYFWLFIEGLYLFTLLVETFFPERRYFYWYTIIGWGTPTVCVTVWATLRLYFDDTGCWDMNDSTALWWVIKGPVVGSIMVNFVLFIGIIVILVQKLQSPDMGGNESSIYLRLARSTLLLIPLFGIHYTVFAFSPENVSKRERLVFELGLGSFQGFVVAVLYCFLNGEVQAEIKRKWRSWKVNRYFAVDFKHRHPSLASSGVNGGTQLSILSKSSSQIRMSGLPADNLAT
Nature of the data set: biochemical. The text has this:
Plasmon Waveguide Resonance (PWR) spectroscopy, an enhanced technology related to Surface Plasmon Resonance (SPR) is capable of monitoring molecular anisotropy and measuring mass and structural changes in real time along with molecular interactions with receptor in the lipid bilayer. PWR was utilized to quantify label-free ligand binding affinities. Intact cell membranes containing human PAC1 receptors (purified and isolated from CHO cells, as described below) were immobilized onto the silica surface of a PWR prism element.
The prism was integrated into a PWR spectrometer system (Mainline Scientific, Malvern, PA). […] Binding events, along with any associated conformational shifts in the receptor or lipid matrix, were directly monitored via the angular resonance shifts of parallel (p-polarized) and perpendicular (s-polarized) light.

Setting [4] is: C57Bl/6J mice, 3 mg/kg IP each, co-injected, 0-60 min, n=4, ratio paired t-test.
Where [5] appears, read: C57Bl/6J mice, co-injected, n=4, SEM.
The mark [6] stands for this setting: C57Bl/6J mice, co-injected, n=4.
Where [7] appears, read: early intervention, 10 mg/kg i.p. x5.
Setting [8] is: late intervention, single 10 mg/kg i.p.
[9] abbreviates: C57Bl/6J, mouse, plasma, ip, 3 mg/kg, SEM.

As to `CCCC[C@H](NC(=O)[C@H](CCC(N)=O)NC(=O)[C@H](CCCCN)NC(=O)[C@H](CCCNC(=N)N)NC(=O)[C@H](Cc1ccc(O)cc1)NC(=O)[C@H](CCCNC(=N)N)NC(=O)[C@H](CO)NC(=O)[C@H](Cc1ccc(O)cc1)NC(=O)[C@H](CO)NC(=O)[C@H](CC(=O)O)NC(=O)[C@@H](NC(=O)[C@H](Cc1ccccc1)NC(=O)[C@@H](NC(=O)CNC(=O)[C@H](CC(=O)O)NC(=O)[C@H](CO)NC(=O)[C@@H](N)Cc1c[nH]cn1)[C@@H](C)CC)[C@@H](C)O)C(=O)N[C@@H](C)C(=O)N[C@H](C(=O)N[C@@H](CCCCN)C(=O)N[C@@H](CCCCN)C(=O)N[C@@H](Cc1ccc(O)cc1)C(=O)N[C@@H](CC(C)C)C(=O)N[C@@H](CO[C@@H]1O[C@H](CO)[C@@H](O[C@@H]2O[C@H](CO)[C@H](O)[C@H](O)[C@H]2O)[C@H](O)[C@H]1O)C(N)=O)C(C)C` [TES2320] (H-HSDGIFTDSYSRYRKQ[Nle]AVKKYLS(X1)-NH2; N-terminus assumed), the “fold increase of AUC over TES2300 in the CSF (brain dialysate)” value in data set [1] (setting [4]) came to 1.43 fold. Further, the “fold increase of AUC over TES2300 in the plasma” value in data set [1] (setting [4]) was found to be 4.73 fold. The “Brain Dialysate: AUC” value in data set [1] (C57Bl/6J mice, n=4, SEM) is 1071 ± 574 ng·min/mL. Also, in data set [1] (setting [5]), the “Brain Dialysate: Cmax” value was 74 ± 22 ng/mL. Further, the “Brain Dialysate: Tmax” value in data set [1] (setting [6]) was determined as 8 min. Besides, in the data set with VPAC1 receptors, the “functional potency at VPAC1 receptors” value is recorded as “picomolar functional potency”. Moreover, the Kd in data set [2] (PWR, receptor-free egg phosphatidylcholine (eggPC) control membranes, read-out: Kd, baseline membrane partitioning affinity) amounted to 1.35 nM; on human PAC1 receptor, 0.0045 nM. Further, the “total grooming time, sucrose splash test” value is given as “no effect” in data set [3] (early intervention, 10 mg/kg i.p. x5, n=12) and “significantly decreased the total grooming time” in data set [3] (mouse, in vivo, ip, 10 mg/kg). Moreover, the “latency to groom, sucrose splash test” value in data set [3] (early intervention, 10 mg/kg i.p. x5, n=12, vs mTBI+vehicle p<0.05, one-way ANOVA) is “effective in preventing the prolonged grooming latency”; in data set [3] (late intervention, single 10 mg/kg i.p., n=11, vs sham or early TES2320 p<0.01) it was “continued to exhibit increased grooming latency”. The Tmax in “in vivo” was 10 min. This compound also had an AUC(0-t) in the data set “in vivo” (SEM) of 101 ng·h/mL. In the data set “in vivo” (SEM), this compound returned a Cmax of 313 ± 62 ng/mL. This compound came in with a half-life in the data set “in vivo” (SEM) of 13 ± 6 min. In addition, the “effect on mTBI-enhanced Ih currents in LHb neurons” value in the data set on LHb neurons (setting [7]) is reported as “insufficient to prevent this Ih enhancement”; in the data set with LHb neurons (late intervention, single 10 mg/kg i.p., vs sham+vehicle p<0.0001) it was “exaggerated this effect”. For the same compound, the “effect on mTBI-reduced M-currents in LHb neurons” value in the data set with LHb neurons (setting [7]) and with LHb neurons (setting [8]) was “Neither early nor late TES2320 intervention in mTBI mice normalized this reduction” each time. For the same compound, the “effect on mTBI-induced LHb hyperexcitability (APs on depolarization)” value is reported as “normalized this hyperexcitability to sham levels” in the data set with LHb neurons (early intervention, 10 mg/kg i.p. x5, n=85 cells/13 mice) and “normalized this hyperexcitability to sham levels” in the data set on LHb neurons (late intervention, single 10 mg/kg i.p., n=31 cells/5 mice). Further, the “effect on mTBI-induced hyperpolarization-induced rebound bursting” value in the data set with LHb neurons (early intervention, 10 mg/kg i.p. x5, vs mTBI+vehicle p<0.01, 2-way ANOVA) is recorded as “normalize this mTBI-induced increase in rebound bursting”; in the data set with LHb neurons (setting [8]), “no effect”. Further, in the data set with LHb neurons (late intervention, single 10 mg/kg i.p., vs mTBI+vehicle p<0.05, one-way ANOVA), the “fast afterhyperpolarization (fAHP) amplitude of LHb neurons” value is given as “significantly diminished”.

In the case of `CCCC[C@H](NC(=O)[C@H](CCC(N)=O)NC(=O)[C@H](CCCCN)NC(=O)[C@H](CCCNC(=N)N)NC(=O)[C@H](Cc1ccc(O)cc1)NC(=O)[C@H](CCCNC(=N)N)NC(=O)[C@H](CO)NC(=O)[C@H](Cc1ccc(O)cc1)NC(=O)[C@H](CO)NC(=O)[C@H](CC(=O)O)NC(=O)[C@@H](NC(=O)[C@H](Cc1ccccc1)NC(=O)[C@@H](NC(=O)CNC(=O)[C@H](CC(=O)O)NC(=O)[C@H](CO)NC(=O)[C@@H](N)Cc1c[nH]cn1)[C@@H](C)CC)[C@@H](C)O)C(=O)N[C@@H](C)C(=O)N[C@H](C(=O)N[C@@H](CCCCN)C(=O)N[C@@H](CCCCN)C(=O)N[C@@H](Cc1ccc(O)cc1)C(=O)N[C@@H](CC(C)C)C(=O)N[C@@H](CO)C(N)=O)C(C)C` [TES2300] (H-HSDGIFTDSYSRYRKQ[Nle]AVKKYLS-NH2; N-terminus assumed), the “Brain Dialysate: AUC” value in data set [1] (C57Bl/6J mice, n=4, SEM) is recorded as 703 ± 338 ng·min/mL. The “Brain Dialysate: Cmax” value in data set [1] (setting [5]) is reported as 64 ± 21 ng/mL. In data set [1] (setting [6]), the “Brain Dialysate: Tmax” value is listed as 8 min. This compound registered a Kp in data set [1] (C57Bl/6J, mouse, brain dialysate / plasma, ip, 3 mg/kg) of 0.513. Moreover, the Tmax in data set [1] (C57Bl/6J, mouse, plasma, ip, 3 mg/kg) was 4 min. Besides, in data set [1] (setting [9]), the AUC(0-t) is 22.8 ng·h/mL, the concentration peaked (Cmax) at 106 ± 25 ng/mL and the half-life was determined as 8 ± 4 min. For the same compound, in data set [2] (PWR, PC bilayers, unglycosylated variant vs TES2320), the “affinity for PC bilayers relative to TES2320” value is listed as “ten fold higher affinity”. In addition, the Kd in data set [2] (as quoted in the pharmacokinetics section, membrane not specified, read-out: Kd, affinity for the membrane) is 0.114 nM.

One may read the Kd as the concentration at which binding is half-saturated. One may read the Tmax as the time at which the peak concentration occurs. A word on the AUC(0-t): it is exposure summed from dosing to a finite time, without extrapolation to infinity. Low values mean less exposure, high ones more exposure. One may read the Cmax as the maximum level reached in the sampled fluid or tissue. For orientation: half-life means the time in which the quantity being followed falls by half. Read a low half-life as rapid decline. As a reminder, the Kp is the ratio of the level in a tissue or fluid to that in plasma or blood.
